# Source: patent publication US20140080795A1, “NRF2 Deficiency Influences Susceptibility to Steroid Resistance via HDAC2 Reduction” (University of Rochester, priority 2010, published 2014)
# How the values were obtained:
# [1] = tested on: MCP-1; assay: LPS-induced lung inflammation in mice: MCP-1 levels in lung tissue by ELISA; assay type: in vivo, mouse; conditions: Nrf2-/- mice, budesonide 1 and 3 mg/kg pretreatment
# Method: Briefly, age-matched WT, Nrf2−/− and HDAC2−/− were exposed to aerosolized Escherichia coli LPS (1 mg/ml) for 8 minutes. Aerosolized saline-exposed mice were used as controls, and animals were sacrificed at 24 h post last exposure. […] Monocyte chemotactic protein 1 (MCP-1) levels were measured from mouse lung soluble protein by enzyme-linked immunosorbent assay (ELISA) with the duo-antibody kit (R & D Systems). Results were normalized to protein concentration per sample. […] Briefly, age-matched wild-type, Nrf2−/− and HDAC2−/− were exposed to aerosolized Escherichia coli LPS diluted to 1 mg/ml for 8 minutes. Aerosolized saline-exposed mice were used as controls and animals were sacrificed at 24 h post last exposure (Yao et al., Am J Respir Cell Mol Biol 39: 7-18 (2008)). […] Monocyte chemotactic protein 1 (MCP-1) levels were measured from mouse lung soluble protein by enzyme-linked immunosorbent assay (ELISA) with the MCP-1 duo-antibody kit (R & D Systems). Results were normalized to protein concentration per sample.
# [2] = tested on: KC; assay: LPS-induced lung inflammation in mice: KC levels in lung homogenates by ELISA; assay type: in vivo, mouse
compound,measurement,setting,value
CCCC1O[C@@H]2C[C@H]3[C@@H]4CCC5=CC(=O)C=C[C@]5(C)[C@H]4[C@@H](O)C[C@]3(C)[C@]2(C(=O)CO)O1 (stereo partly drawn) [budesonide],LPS-induced release of MCP-1 in lung,[1],no inhibitory effect
same,KC release in lung,"[2]; HDAC2-/- mice, budesonide 3 mg/kg pretreatment",no significant effect
same,LPS-induced release of KC in lung,"[2]; Nrf2-/- mice, budesonide 1 and 3 mg/kg pretreatment",no inhibitory effect
